Measurements taken from EP4273147A1, “SUBSTITUTED SPIROLACTAMS, SALTS THEREOF AND THEIR USE AS HERBICIDALLY ACTIVE SUBSTANCES” (Bayer Aktiengesellschaft, priority 2022, dated 2023).

Columns and labels:
ECHCG [1] = experiment: Herbicidal pre-emergence action (Table A2); format: in vivo, Echinochloa crus-galli; settings: visual grading after ca. 3 weeks
How it was run: (§1)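 Seeds of monocot and dicot weeds were sown in pots of sandy loam and covered with soil. Each pot held a double sowing: one monocotyledonous plus one dicotyledonous species.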

LOLRI [2] = experiment: Herbicidal pre-emergence action (Table A3); format: in vivo, Lolium rigidum; settings: visual grading after ca. 3 weeks
How it was run: as §1

ECHCG [3] = experiment: Herbicidal post-emergence action (Table B3); format: in vivo, Echinochloa crus-galli; settings: Echinochloa crus-galli, post-emergence, 504 h; application rate 1280 g/ha; rated visually after about 3 weeks; read-out: post-emergence activity against ECHCG
How it was run: (§2)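 Visual rating against untreated plants (0% = as control, 100% = dead) made roughly 3 weeks after application. Weed species were grown in sandy loam pots under greenhouse conditions and sprayed at the one-leaf stage, 2–3 weeks post-sowing.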

KCHSC [4] = experiment: Herbicidal post-emergence action (Table B4); format: in vivo, Kochia scoparia; settings: application rate 1280 g/ha; rated visually after about 3 weeks
Experimental: (§3) Seeds of mono- and dicotyledonous weed plants were placed in plastic pots in sandy loam soil (doubly sown with in each case one species of mono- or dicotyledonous weed plants per pot), covered with soil and cultivated in a greenhouse under controlled growth conditions. 2 to 3 weeks after sowing, the test plants were treated at the one-leaf stage. […] After the test plants had been kept in the greenhouse under optimum growth conditions for about 3 weeks, the activity of the preparations was rated visually in comparison to untreated controls. For example, 100% activity = the plants have died, 0% activity = like control plants.

LOLRI [5] = experiment: Herbicidal post-emergence action (Table B5); format: in vivo, Lolium rigidum; settings: application rate 1280 g/ha; rated visually after about 3 weeks
Experimental: as §3

POAAN [6] = experiment: Herbicidal post-emergence action (Table B7); format: in vivo, Poa annua; settings: application rate 1280 g/ha
How it was run: as §2

VERPE = experiment: Herbicidal post-emergence action (Table B10); format: in vivo, Veronica persica; settings: application rate 1280 g/ha
How it was run: as §2

AMARE = experiment: Herbicidal post-emergence action (Table B11); format: in vivo, Amaranthus retroflexus; settings: application rate 1280 g/ha
Experimental: as §3

MATIN = experiment: Herbicidal pre-emergence action (Table A4); format: in vivo, Matricaria inodora; settings: application rate 1280 g/ha; visual grading after ca. 3 weeks
How it was run: as §1

SETVI = experiment: Herbicidal pre-emergence action (Table A5); format: in vivo, Setaria viridis; settings: application rate 320 g/ha; visual grading after ca. 3 weeks
How it was run: as §1

STEME = experiment: Herbicidal pre-emergence action (Table A6); format: in vivo, Stellaria media; settings: application rate 320 g/ha; visual grading after ca. 3 weeks
How it was run: as §1

POAAN [7] = experiment: Herbicidal pre-emergence action (Table A7); format: in vivo, Poa annua; settings: application rate 320 g/ha; visual grading after ca. 3 weeks
How it was run: as §1

KCHSC [8] = experiment: Herbicidal pre-emergence action (Table A10); format: in vivo, Kochia scoparia; settings: application rate 1280 g/ha; visual grading after ca. 3 weeks
How it was run: as §1

DIGSA [9] = experiment: Herbicidal pre-emergence action (Table A12); format: in vivo, Digitaria sanguinalis; settings: application rate 320 g/ha; visual grading after ca. 3 weeks
How it was run: as §1

DIGSA [10] = experiment: Herbicidal post-emergence action (Table B12); format: in vivo, Digitaria sanguinalis; settings: application rate 1280 g/ha
Experimental: as §3

| SMILES | pre-emergence activity against ECHCG (ECHCG [1]; application rate 1280 g/ha) [%] | pest or weed control at 1280 g/ha (LOLRI [2]; Lolium rigidum, pre-emergence, 504 h, application rate 1280 g/ha, read-out: pre-emergence activity against LOLRI) [%] | pest or weed control at 1280 g/ha (ECHCG [3]) [%] | post-emergence activity against KCHSC (KCHSC [4]) [%] | post-emergence activity against LOLRI (LOLRI [5]) [%] | post-emergence activity against POAAN (POAAN [6]) [%] | post-emergence activity against VERPE (VERPE) [%] | post-emergence activity against AMARE (AMARE) [%] | pre-emergence activity against ECHCG (ECHCG [1]; application rate 320 g/ha) [%] | pre-emergence activity against LOLRI (LOLRI [2]; application rate 320 g/ha) [%] | pre-emergence activity against MATIN (MATIN) [%] | pre-emergence activity against SETVI (SETVI) [%] | pre-emergence activity against STEME (STEME) [%] | pre-emergence activity against POAAN (POAAN [7]) [%] | pre-emergence activity against KCHSC (KCHSC [8]) [%] | pre-emergence activity against DIGSA (DIGSA [9]) [%] | post-emergence activity against DIGSA (DIGSA [10]) [%] |
| --- | --- | --- | --- | --- | --- | --- | --- | --- | --- | --- | --- | --- | --- | --- | --- | --- | --- |
| O=C1N(Cc2cccnc2C(F)(F)F)CCCC12CCCN(Cc1cccnc1C(F)(F)F)C2=O [I-184, (+)-2,8-bis{[2-(trifluoromethyl)pyridin-3-yl]methyl}-2,8-diazaspiro[5.5]undecane-1,7-dione] | 100 | 90 | 90 | 90 | 90 | 90 | 90 | 90 |  |  |  |  |  |  |  |  |  |
| O=C1N(Cc2ccccc2)CCC12CCCN(Cc1c(F)cccc1F)C2=O (racemic) [I-089] |  |  |  |  |  |  |  |  | 100 | 100 | 90 | 100 | 90 | 100 | 90 | 90 | 90 |
